Several values for one entry are separate records, joined by “and”; a condition that tells them apart may be missing. Identical values can stand only once. Inconclusive results and toxic doses are left out.
System: BDF1 mice, P388 leukemia ip, median survival T/C
Test: NCI In Vivo Anticancer Drug Screen. Data for tumor model P388 Leukemia (intraperitoneal) in B6D2F1 (BDF1) mice
Settings: endpoint: median survival time, higher = longer survival
How it was run: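 Reported as T/C, where T is the survival measurement in dosed animals and C the same measurement in vehicle controls.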

[1] = dose: 6.25 mg/kg/injection, schedule: Q01DX009 (ip), vehicle: saline with Tween-80
[2] = dose: 12.5 mg/kg/injection, schedule: Q01DX009 (ip), vehicle: saline with Tween-80
[3] = dose: 25.0 mg/kg/injection, schedule: Q01DX009 (ip), vehicle: saline with Tween-80
[4] = dose: 50.0 mg/kg/injection, schedule: Q01DX009 (ip), vehicle: saline with Tween-80
[5] = dose: 50.0 mg/kg/injection, schedule: Q01DX009 (ip), vehicle: Klucel (hydroxypropylcellulose) (HPC)
[6] = dose: 100.0 mg/kg/injection, schedule: Q01DX009 (ip), vehicle: Klucel (hydroxypropylcellulose) (HPC)
[7] = dose: 200.0 mg/kg/injection, schedule: Q01DX009 (ip), vehicle: Klucel (hydroxypropylcellulose) (HPC)
[8] = dose: 400.0 mg/kg/injection, schedule: Q01DX009 (ip), vehicle: Klucel (hydroxypropylcellulose) (HPC)
[9] = dose: 200.0 mg/kg/injection, schedule: Q04DX003 (ip), vehicle: saline with Tween-80
[10] = dose: 400.0 mg/kg/injection, schedule: Q04DX003 (ip), vehicle: saline with Tween-80
[11] = dose: 400.0 mg/kg/injection, schedule: Q04DX003 (ip), vehicle: saline
[12] = dose: 200.0 mg/kg/injection, schedule: Q04DX003 (ip), vehicle: saline
[13] = dose: 100.0 mg/kg/injection, schedule: Q04DX003 (ip), vehicle: saline with Tween-80
[14] = dose: 50.0 mg/kg/injection, schedule: Q01DX009 (ip), vehicle: saline
[15] = dose: 100.0 mg/kg/injection, schedule: Q01DX009 (ip), vehicle: saline
[16] = dose: 12.5 mg/kg/injection, schedule: Q01DX009 (ip), vehicle: saline
[17] = dose: 200.0 mg/kg/injection, schedule: Q01DX009 (ip), vehicle: saline
[18] = dose: 400.0 mg/kg/injection, schedule: Q01DX009 (ip), vehicle: saline

NC(=S)N/N=C\c1nccc2c(N)cccc12
T/C [1]: 186 % of control
T/C [2]: 191 % of control
T/C [3]: 195 % of control
T/C [4]: 91 % of control
T/C (dose: 75.0 mg/kg/injection, schedule: Q01DX009 (ip), vehicle: saline with Tween-80): 89 % of control

CC1=NN(c2ccccc2)C(=O)/C1=C\c1ccc(N(CCC#N)CCC#N)cc1
T/C [5]: 87 % of control
T/C [6]: 93 % of control
T/C [7]: 87 % of control
T/C [8]: 91 % of control

CS(=O)(=O)OCC(=O)NCCNC(=O)COS(C)(=O)=O
T/C [9]: 152 % of control
T/C (dose: 264.0 mg/kg/injection, schedule: Q04DX003 (ip), vehicle: saline with Tween-80): 160 % of control
T/C (dose: 264.0 mg/kg/injection, schedule: Q04DX003 (ip), vehicle: saline): 165 % of control
T/C [10]: 169 % of control and 180 % of control
T/C [11]: 152 % of control
T/C (dose: 600.0 mg/kg/injection, schedule: Q04DX003 (ip), vehicle: saline): 182 % of control

O=C1c2ccccc2C(=O)N1CNc1cccc(NCN2C(=O)c3ccccc3C2=O)c1
T/C (dose: 100.0 mg/kg/injection, schedule: Q01DX001 (ip), vehicle: saline): 100 % of control
T/C (dose: 100.0 mg/kg/injection, schedule: Q04DX003 (ip), vehicle: saline): 104 % of control
T/C (dose: 200.0 mg/kg/injection, schedule: Q01DX001 (ip), vehicle: saline): 100 % of control
T/C [12]: 104 % of control
T/C (dose: 400.0 mg/kg/injection, schedule: Q01DX001 (ip), vehicle: saline): 90 % of control
T/C [11]: 100 % of control

Cc1ccc(N=Nc2nc3nc(N)[nH]c(=O)c3[nH]2)cc1
T/C (dose: 50.0 mg/kg/injection, schedule: Q01DX005 (ip), vehicle: saline with Tween-80): 100 % of control
T/C (dose: 100.0 mg/kg/injection, schedule: Q01DX005 (ip), vehicle: saline with Tween-80): 105 % of control
T/C (dose: 200.0 mg/kg/injection, schedule: Q01DX005 (ip), vehicle: saline with Tween-80): 87 % of control

NOCc1ccccc1CON
T/C (dose: 37.5 mg/kg/injection, schedule: Q04DX003 (ip), vehicle: saline): 108 % of control
T/C (dose: 75.0 mg/kg/injection, schedule: Q04DX003 (ip), vehicle: saline): 95 % of control
T/C (dose: 150.0 mg/kg/injection, schedule: Q04DX003 (ip), vehicle: saline): 100 % of control

CSc1cccc(NC(=O)N2CCN(c3ccccc3)CC2)c1
T/C (dose: 12.5 mg/kg/injection, schedule: Q01DX009 (ip), vehicle: DMSO): 93 % of control
T/C (dose: 25.0 mg/kg/injection, schedule: Q01DX009 (ip), vehicle: DMSO): 94 % of control

COc1ccc(CNCCNCCNCc2ccc(OC)cc2)cc1
T/C [3]: 87 % of control
T/C [4]: 105 % of control
T/C (dose: 100.0 mg/kg/injection, schedule: Q01DX009 (ip), vehicle: saline with Tween-80): 101 % of control and 105 % of control
T/C [13]: 122 % of control
T/C (dose: 200.0 mg/kg/injection, schedule: Q01DX009 (ip), vehicle: saline with Tween-80): 93 % of control
T/C [9]: 111 % of control
T/C (dose: 400.0 mg/kg/injection, schedule: Q01DX009 (ip), vehicle: saline with Tween-80): 101 % of control
T/C [10]: 122 % of control

O=S1(=O)CC(Cl)(Br)C1
T/C [5]: 105 % of control
T/C [6]: 114 % of control
T/C [7]: 123 % of control

OC(C(c1ccccc1)N1CCCCC1)C(O)(c1ccccc1)c1ccccc1 (configuration not stated)
T/C (dose: 100.0 mg/kg/injection, schedule: Q01DX001 (ip), vehicle: saline sonified): 100 % of control
T/C (dose: 200.0 mg/kg/injection, schedule: Q01DX001 (ip), vehicle: saline sonified): 105 % of control
T/C (dose: 400.0 mg/kg/injection, schedule: Q01DX001 (ip), vehicle: saline sonified): 100 % of control

Nc1ccc(S(=O)(=O)Nc2ccc(I)cc2)cc1
T/C [6]: 90 % of control
T/C (dose: 100.0 mg/kg/injection, schedule: Q04DX003 (ip), vehicle: Klucel (hydroxypropylcellulose) (HPC)): 123 % of control
T/C [7]: 104 % of control
T/C (dose: 200.0 mg/kg/injection, schedule: Q04DX003 (ip), vehicle: Klucel (hydroxypropylcellulose) (HPC)): 96 % of control
T/C [8]: 100 % of control
T/C (dose: 400.0 mg/kg/injection, schedule: Q04DX003 (ip), vehicle: Klucel (hydroxypropylcellulose) (HPC)): 92 % of control

OCCN1CCN(CCCN2c3ccccc3Sc3ccc(C(F)(F)F)cc32)CC1
T/C (dose: 0.31 mg/kg/injection, schedule: Q01DX009 (ip), vehicle: saline): 86 % of control
T/C (dose: 0.62 mg/kg/injection, schedule: Q01DX009 (ip), vehicle: saline): 90 % of control
T/C (dose: 0.82 mg/kg/injection, schedule: Q01DX009 (ip), vehicle: saline): 86 % of control
T/C (dose: 1.25 mg/kg/injection, schedule: Q01DX009 (ip), vehicle: saline): 113 % of control
T/C (dose: 12.5 mg/kg/injection, schedule: Q04DX003 (ip), vehicle: saline): 105 % of control

O=C(Nc1cccc2c1N(C(=O)c1ccco1)CCC2)c1ccco1
T/C [13]: 91 % of control
T/C [9]: 100 % of control
T/C [10]: 104 % of control

Nc1cc2ccccc2c(O)c1O
T/C (dose: 75.0 mg/kg/injection, schedule: Q04DX003 (ip), vehicle: saline sonified): 100 % of control
T/C (dose: 150.0 mg/kg/injection, schedule: Q04DX003 (ip), vehicle: saline sonified): 111 % of control
T/C (dose: 300.0 mg/kg/injection, schedule: Q04DX003 (ip), vehicle: saline sonified): 94 % of control

Cc1ccc(SC2CC3CC2C2COCC32)cc1 (configuration not stated)
T/C (dose: 25.0 mg/kg/injection, schedule: Q01DX009 (ip), vehicle: Klucel (hydroxypropylcellulose) (HPC)): 86 % of control
T/C [5]: 95 % of control
T/C [6]: 104 % of control

CC1(C)N=C(N)N=C(N)N1c1ccc(OCC(=O)Nc2ccc(S(=O)(=O)F)cc2)c(Cl)c1
T/C (dose: 44.0 mg/kg/injection, schedule: Q04DX003 (ip), vehicle: saline): 113 % of control
T/C [14]: 190 % of control
T/C (dose: 100.0 mg/kg/injection, schedule: Q01DX008 (ip), vehicle: saline): 195 % of control
T/C [15]: 205 % of control
T/C (dose: 132.0 mg/kg/injection, schedule: Q04DX003 (ip), vehicle: saline): 166 % of control and 200 % of control
T/C (dose: 200.0 mg/kg/injection, schedule: Q01DX008 (ip), vehicle: saline): 200 % of control
T/C [12]: 161 % of control and 215 % of control
T/C (dose: 300.0 mg/kg/injection, schedule: Q04DX003 (ip), vehicle: saline): 245 % of control and 152 % of control

O=[N+]([O-])c1cc2no[n+]([O-])c2cc1N1CCOCC1
T/C (dose: 30.0 mg/kg/injection, schedule: Q01DX009 (ip), vehicle: saline with Tween-80): 108 % of control

NCC1OC(OC2C(N)CC(N)C(O)C2OC2OC(CO)C(O)C2O)C(N)C(O)C1O (configuration not stated)
T/C [16]: 104 % of control
T/C (dose: 25.0 mg/kg/injection, schedule: Q01DX009 (ip), vehicle: saline): 111 % of control
T/C [14]: 111 % of control
T/C [15]: 110 % of control and 114 % of control and 120 % of control
T/C (dose: 150.0 mg/kg/injection, schedule: Q01DX009 (ip), vehicle: saline): 105 % of control
T/C [17]: 119 % of control
T/C (dose: 225.0 mg/kg/injection, schedule: Q01DX009 (ip), vehicle: saline): 99 % of control
T/C [18]: 99 % of control

CCC[CH2][Sn]([CH2]CCC)([O]C(C)=O)[O]C(C)=O
T/C (dose: 3.12 mg/kg/injection, schedule: Q01DX009 (ip), vehicle: saline with Tween-80): 114 % of control
T/C (dose: 6.12 mg/kg/injection, schedule: Q01DX009 (ip), vehicle: saline): 154 % of control
T/C [1]: 151 % of control
T/C [2]: 86 % of control
T/C [16]: 156 % of control

ClCc1ccc(CCl)cc1
T/C (dose: 7.03 mg/kg/injection, schedule: Q01DX009 (ip), vehicle: Klucel (hydroxypropylcellulose) (HPC)): 110 % of control

C1CC[N-]CC1.C1CC[N-]CC1.C1CC[N-]CC1.C1CC[N-]CC1.CC(=N\[O-])/C(C)=N/O.CC(=N\[O-])/C(C)=N/O.[Cl-].[Cl-].[Cl][Rh][Cl].[Rh+3]
T/C [14]: 98 % of control
T/C [15]: 86 % of control
T/C [17]: 86 % of control
T/C [18]: 95 % of control

CC(C)(C)c1ccc2c(cc[n+]3ccccc23)c1
T/C (dose: 1.56 mg/kg/injection, schedule: Q01DX005 (ip), vehicle: saline with Tween-80): 115 % of control
T/C (dose: 3.13 mg/kg/injection, schedule: Q01DX005 (ip), vehicle: saline with Tween-80): 123 % of control
